Laboratory results from patent US20170273906A1, “TARGETED LIPOSOMES ENCAPSULATING IRON COMPLEXES AND THEIR USES” (Ramot at Tel-Aviv University Ltd., priority 2014, published 2017).

Tests used:
[1] = tested on: LPS stimulated RAW264.7 macrophages; assay: TNF-α secretion from LPS stimulated macrophages; type: cell-based, mouse; details: hemin dose of 50 μg/ml, FIG. 1C
Procedure: III. Further, the effect of hemin/HA-LP on TNF-α secretion levels from LPS stimulated RAW264.7 macrophages, on IL-12 cytokine secretion from peritoneal macrophages stimulated with LPS for 24 hours, and expression of HO-1 expression were measured. In addition, the effect of hemin/HA-L on macrophage inflammatory and anti-inflammatory properties was evaluated. First, TNF-α secretion levels from LPS stimulated RAW264.7 macrophages was measured (FIG. 1C, “LP” denoting liposome). […] Next, mouse peritoneal macrophages were stimulated with LPS for 24 hours. After LPS removal, the cells were treated with either hemin/HA-LP, empty HA-LP, free hemin or saline. […] The anti-inflammatory activity of hemin was evaluated in vitro, in the established cell line of mouse peritoneal macrophages RAW264.7. Anti-inflammatory treatment was measured by reduction in secretion of the pro-inflammatory cytokine TNF-α, in LPS-activated macrophages.

HO-1 [2] = assay: HO-1 expression in LPS-activated macrophages; type: cell-based, mouse; details: LPS 24 hours, then three days in culture; FIG. 1E
Procedure: III. Further, the effect of hemin/HA-LP on TNF-α secretion levels from LPS stimulated RAW264.7 macrophages, on IL-12 cytokine secretion from peritoneal macrophages stimulated with LPS for 24 hours, and expression of HO-1 expression were measured. In addition, the effect of hemin/HA-L on macrophage inflammatory and anti-inflammatory properties was evaluated. First, TNF-α secretion levels from LPS stimulated RAW264.7 macrophages was measured (FIG. 1C, “LP” denoting liposome). […] Next, mouse peritoneal macrophages were stimulated with LPS for 24 hours. After LPS removal, the cells were treated with either hemin/HA-LP, empty HA-LP, free hemin or saline.

[3] = tested on: LPS-activated RAW264.7 cells; assay: In vitro viability assay (XTT/SRB), LPS-activated macrophages; type: cell-based, mouse; details: hemin dose of 50 μg/ml and liposome dose of 4 mM lipid, 24 hours, XTT; FIG. 7
Procedure: I. RAW264.7 cells were seeded onto 96 well plates, and the experiments were initiated 24 hours later, at semi-confluency. The regular (serum supplemented) cell growth media was replaced by the same media but containing one of the following treatments: free hemin, drug-free RL-MLV, HA-MLV, hemin-encapsulating RL-MLV and hemin-encapsulating HA-MLV. Wells receiving the regular cell growth media without any addition served as controls. Incubation time was 24 hours, at the end of which the experiment was terminated and cell viability was determined by the XTT or SRB methods. Both methods yielded similar results.
Cell viability was determined using XTT method. […] In addition, cell viability was also determined by the SRB method, which is independent of mitochondrial enzymes (results not shown). Both methods gave similar results.

peritoneal macrophages = assay: Peritoneal macrophage profile following injection after MI (FACS); type: in vivo, mouse; details: IP one day after MI, three days later
Excerpt: (§1) Twelve week-old female Balb/C mice (20 gr.) were anesthetized with 2% isoflurane, and were surgically opened by left thoractomy through the fourth intercostal space to expose the beating heart. To induce MI, the left main coronary artery was permanently occluded with an intramural suture.
To determine liposomal hemin effect on peritoneal and cardiac macrophages, hemin was formulated in HA-L. Hemin encapsulation efficiency was ˜100% at therapeutic dose levels. Mice were allocated with hemin/HA-L (2 mg hemin/kg body and 50 mg lipid/kg body), empty liposomes (HA-targeted, 50 mg lipid/kg body), free hemin (2 mg/kg body) or saline (100 μl) by intra-peritoneal injection one day after MI. Three days later, mice were euthanized and peritoneal macrophages were aspirated from abdominal cavity. Cells were counted and stained with an anti-mouse F4/80 (as general macrophage marker) and with either PE-conjugated anti-mouse CD86 (as M1 marker) or FITC-conjugated anti-mouse mannose receptor (CD206; as M2 marker). Cells were analyzed by FACS Calibur cytometer using CellQuest™ software.
Following hemin/HA-L (2 mg hemin/kg body and 50 mg lipid/kg body) injection into mice peritoneum (IP), macrophages from the abdominal cavity were isolated and analyzed by flow cytometry.

[4] = tested on: Mouse Model of Myocardial Infarction (MI); assay: Histological analysis of infarct size (hematoxylin and eosin), 30 days after MI; type: in vivo; details: FIG. 13E
Excerpt: as §1
The imaging results of treatment with Hemin/HA-L (FIG. 13A), free hemin (FIG. 13B), empty liposomes (FIG. 13C) and saline (FIG. 13D) were confirmed by histological analysis, 30 days after MI. […] Noticeably, empty liposomes and free hemin treatments were also associated with a decreased scar tissue (by 40% and 43%), compared with saline (FIG. 13E). Overall, the presented findings indicate that hemin/HA-L is a promising agent to modulate and resolve inflammation following MI by enhancing healing and repair processes.

COS-7 = assay: Cell viability (XTT and SRB), COS-7; type: cell-based; details: 24 hours
Procedure: (§2) For evaluating the effect of Hemin/HA-L on cancer cells, the liposomes prepared as described above were used. The only difference was in the amount of dry liposome forming lipid powder used in the “cancer aspect”. Specifically, in the following anti-cancer aspect, for rehydration of the hemin, higher amounts of the powder were used to reach a liposome concentration of 10-20 mM lipid.
(§3) The impact of hemin/HA-L at high liposome concentrations on cell viability was tested on five cell lines and compared to the same dose of free hemin, as well as to the same liposomal dose of drug-free HA-L.
(§4) Three of the cell lines originated from human cancers: MDA-MB-231 and MCF-7 from breast cancer and NCI/ADR-Res (abbreviated to NAR) from ovarian cancer. The RAW264.7 cell line is from mouse peritoneal macrophages, and the COS-7 cell line is noncancerous. […] MCF-7 is known to be sensitive to chemotherapeutic drugs, whereas NAR is known to be highly resistant to chemotherapeutic drugs, in the multi-drug resistant mechanism operating by the extrusion pumps of the ABC superfamily of transporters.
(§5) The Results of treating the five cell lines with hemin/HA-L, hemin, drug-free HA-L or control (i.e. untreated) for 24 hours, are shown in Tables 2 and 3, for hemin doses (free or liposomal) of 25 μg/ml and 50 μg/ml, respectively. Cell viability was evaluated by two independent methods: XTT and SRB.

RAW264.7 = assay: Cell viability (XTT and SRB), RAW264.7; type: cell-based, mouse; details: hemin 50 μg/ml, 24 hours
Procedure: as §2, §3, §4, §5

MCF-7 = assay: Cell viability (XTT and SRB), MCF-7; type: cell-based, human; details: 24 hours
Procedure: as §2, §3, §4, §5

MDA-MB-231 = assay: Cell viability (XTT and SRB), MDA-MB-231; type: cell-based, human; details: 24 hours
Procedure: as §2, §3, §4, §5

NCI/ADR-Res = assay: Cell viability (XTT and SRB), NCI/ADR-Res; type: cell-based, human; details: 24 hours
Procedure: as §2, §3, §4, §5
(§6) To this end, NCI/ADR-Res (NAR) cells were first tested with drug-free regular liposomes and drug-free HA-L, at three liposome doses—4 mM, 10 mM, and 21 mM—lipid, with untreated cells serving as controls. The experiments were performed in 24-well plates, treatment was for 24 hours, and upon termination the active intracellular HO-1 was determined using a commercial kit and following the kit's instructions. Parallel wells were used to evaluate cell viability using the SRB method. The results are presented in FIG. 14 (average of 6 wells; Statistical significance was evaluated by student t test (two tail, unequal variance) for RL vs. control and for HA-L vs. control. *p<0.05, **p<0.003, ***p<0.0001).

HO-1 [5] = assay: Intracellular concentration of active HO-1 in NAR cells (commercial kit); type: cell-based, human; details: hemin 25 μg/ml (free, or encapsulated in 2 mM lipid), 24 hours; FIG. 15
Procedure: as §6, with “The” for “To this end, NCI/ADR-Res (NAR) cells were first tested with drug-free regular liposomes and drug-free HA-L, at three liposome doses—4 mM, 10 mM, and 21 mM—lipid, with untreated cells serving as controls. The”
In both cases, as also shown in FIG. 15, cell viability (line crossing open circles) was intact.

NAR xenografts = assay: Mouse tumor model, tumor volume; type: in vivo; details: tail vein, 3 injections a week apart; 2 mpk hemin and/or 125 mpk lipid; follow up two weeks after last injection; FIG. 17B
Procedure: The experimental details and design were as follows: Hsd:Athymic Nude Foxn1nu female mice (8 weeks old, 25 gr.) were inoculated with NAR cells (6.5*10^6 cells/100 μl HBSS), to the flank. Treatment was initiated at tumor volumes of 150-180 mm^3. There were three treatment groups and in all three the solvent was HBSS: (1) mice injected with drug-free HA-L^hi at the dose of 125 mpk lipid. (2) mice injected with free hemin at the dose of 2 mpk and (3) mice injected with hemin/HA-L^hi at the respective doses of 2 mpk (hemin) and 125 mpk (lipid). The injections were to the tail vein, and the injection volume was 200 μl. Each mice was given 3 injections spaced a week apart. Follow up was by animal weight and tumor volume (measured by caliper), up to two weeks after the last injection.

Question: hemin [Free hemin] was tested. Which TNF-α secretion [1] did it give?
Answer: Its TNF-α secretion is “no effect”.

Question: What about the TNF-α secretion ([1]; listed as free hemin) of the same substance?
Answer: The TNF-α secretion was “high levels of TNF-α”.

Question: What about the “HO-1 expression within macrophages” value (HO-1 [2]) of the same substance?
Answer: The value was “highest HO-1 expression”.

Question: What about the Cell Viability [3] of the same substance?
Answer: Its Cell Viability is “did not significantly affected cell viability”.

Question: And the “M2 (anti-inflammatory) peritoneal macrophages” value (peritoneal macrophages; 2 mg hemin/kg body and/or 50 mg lipid/kg body, FIG. 8C)?
Answer: The value was 6.4±1.5%.

Question: What about the “M2/M1, peritoneal macrophages” value (peritoneal macrophages; FIG. 8D) of the same substance?
Answer: Its value is 0.08±0.03.

Question: And the “reduction of infarct size (scar tissue) compared with saline” value [4]?
Answer: The value was 43%.

Question: And the “Cell Viability” value (COS-7; hemin 25 μg/ml)?
Answer: Its value is 99(±3) %.

Question: What about the “Cell Viability” value (COS-7; hemin 50 μg/ml) of the same substance?
Answer: Its value is 91(±3) %.

Question: What about the “Cell Viability” value (RAW264.7) of the same substance?
Answer: The value was 119(±17) %.

Question: And the “Cell Viability” value (MCF-7; hemin 25 μg/ml)?
Answer: The value was 104(±4) %.

Question: What about the “Cell Viability” value (MCF-7; hemin 50 μg/ml) of the same substance?
Answer: The value was 108(±5) %.

Question: And the “Cell Viability” value (MDA-MB-231; hemin 25 μg/ml)?
Answer: Its value is 92(±13) %.

Question: And the “Cell Viability” value (MDA-MB-231; hemin 50 μg/ml)?
Answer: The value was 91(±8) %.

Question: What about the “cell viability (SRB)” value (NCI/ADR-Res; free hemin 25 μg/ml or drug-free HA-L 2 mM lipid, FIG. 15) of the same substance?
Answer: Its value is “intact”.

Question: And the “Cell Viability” value (NCI/ADR-Res; hemin 25 μg/ml)?
Answer: The value was 120(±7) %.

Question: And the “Cell Viability” value (NCI/ADR-Res; hemin 50 μg/ml)?
Answer: The value was 110(±6) %.

Question: What about the “intracellular levels of active HO-1” value (HO-1 [5]) of the same substance?
Answer: Its value is “small, but significant increase”.

Question: And the tumor volume (NAR xenografts)?
Answer: The tumor volume was “slight decrease”.
